Laboratory results from US7531195B2, “Schisandrin B preparation” (priority 2005, dated 2009).
Marks after values point to notes of the source that are not given here.

Legend:
[1] = test system: Hsp70; experiment: Tissue Hsp70 level in young female rats (Western blot); assay type: in vivo, rat; settings: 10 mg/kg daily, 15 days
Description: Female Sprague-Dawley rats (8 weeks old) were maintained under a 12-h dark/light cycle at about 22° C. and allowed food and water ad libitum. Drug treated animals received a daily bolus dose of (−) Schisandrin B, α-lipoic acid (α-LA) or α-tocopherol (α-Toc) at 10, 5 and 70 mg/kg, respectively, for 15 days. The dosages were determined with reference to the equivalent amount of crude herb prescribed for human or the daily recommended intake in health supplements. The control animals received olive oil only. Twenty-four hours after the last dose, the pentobarbital-anesthetized animals were sacrificed by cardiac excision, and brain. heart, liver and skeletal muscle tissues were obtained.
Hsp25 and Hsp70 levels was estimated by Western blot analysis using specific antibodies (anti-Hsp25, catalog #SPA-801; anti-Hsp70, catalog #SPA-812) from StressGen (Vancouver, BC, Canada) following SDS-PAGE analysis of the nuclear-free tissue homogenates, using a separating gel of 10% acrylamide as described in Ip et. al. (2001). Hsp25/27 and Hsp70 (human recombinant proteins from StressGen) and actin (bovine muscle from Sigma) were used as markers for reference. […] All immuno-blots were analyzed by densitometry, and the amounts (arbitrary units) of Hsp were normalized with reference to actin levels (arbitrary units) in the sample.

[2] = test system: Myocardial Mitochondria; experiment: Myocardial mitochondrial glutathione antioxidant status, old male and female rats; assay type: in vivo, rat; settings: liposome-encapsulated in drinking water, 10 mg/kg daily, 35 days
Description: Aged male and female rats (˜12 months old) were administered with liposome-encapsulated (−) Schisandrin B in drinking water for 35 days, with the daily dose estimated to be 10 mg/kg.
Male/Female adult Sprague-Dawley rats (˜12 months old) were maintained under a 12-h dark/light cycle at about 22° C. and allowed food and water ad libitum. Animals were randomly divided into groups, with at least 5 animals in each. In the pretreatment groups, rats were treated with liposome-encapsulated (−) Schisandrin B in drinking water for 35 days, with the estimated daily dose of 10 mg/kg. Control animals received empty liposomes-containing drinking water. Twenty-four hours following the last dosing, hearts were isolated from control or drug-pretreated rats and then subjected to Langendorff perfusion as described below.
Myocardial tissue samples were rinsed with ice-cold isotonic buffer (50 mM Tris, 0.32 M sucrose, 1 mM Na2EDTA, 0.2 mg/ml soybean trypsin inhibitor, 0.2 mg/ml bacitracine, 0.16 mg/ml benzamidine). Tissue homogenates were prepared by homogenizing 0.8 g of myocardial tissue in 8 ml ice-cold isotonic buffer and the homogenates were used for the preparation of mitochondrial fractions by differential centrifugation, as described in Chiu and Ko (2004). The mitochondrial pellets were resuspended in 1.5 ml of isotonic buffer containing 150 μl of 2 mg/ml soybean trypsin inhibitor and constituted the mitochondrial fractions.
Aliquots (500 μl) of mitochondrial fractions were taken for measuring mitochondrial GSH level by HPLC methods, using GSH as standards, respectively, as described (Chiu et al 2002). Aliquots (400 μl) of mitochondrial fractions were mixed with 933 μl Triton X-100 solution (0.3%, v/v, in isotonic buffer) and sonicated for 2 min on ice. The mixtures were then subjected to measurements of mitochondrial glutathione reductase (GRD), Se-glutathione peroxidase (GPX) and glutathione S-transferases (GST) activities by spectrophotometric methods, as described in Chiu et al. (2002).

[3] = test system: Isolated-Perfused Rat Heart; experiment: Myocardial ischemia-reperfusion injury (LDH leakage), isolated-perfused heart of young rats; assay type: in vivo; settings: 35 days
Description: Male/Female adult Sprague-Dawley rats (˜10 weeks old) were maintained under a 12-h dark/light cycle at about 22° C. and allowed food and water ad libitum. Animals were randomly divided into groups, with at least 5 animals in each. In the pretreatment groups, rats were treated intragastrically with (−) Schisandrin B at a daily dose of 1 or 10 mg/kg for 35 days. Control animals received oil only (10 ml/kg). Twenty-four hours following the last dosing, hearts were isolated from control or drug-pretreated rats and then subjected to Langendorff perfusion as described below.
The heart was excised quickly and immediately immersed in ice-cold and heparinized (50 unit/ml) saline. The aorta was cannulated and then transferred to a warm and moistured chamber of the perfusion apparatus. The heart was retrogradely perfused according to Langendorff method as described (Yim and Ko 1999).
Coronary effluent was collected in 1-min fractions at increasing time intervals during the course of equilibration and reperfusion. The fractions were immediately put on ice until assay for lactate dehydrogenase (LDH) activity. The extent of LDH leakage during the reperfusion period, an indirect index of myocardial injury, was estimated by computing the area under the curve of the graph plotting the percent LDH activity (with respect to the mean pre-ischemic value measured during the equilibration period) against the reperfusion time (1-20 min), as described (Yim and Ko 1999). Immediately after the I-R procedure, heart ventricular tissue samples were obtained for biochemical analysis.

## COc1cc2c(c(OC)c1OC)-c1c(cc3c(c1OC)OCO3)CC(C)C(C)C2 (single isomer, unassigned; (-)) [(−) Sch B, (−) Schisandrin B]
[1]; BRAIN
  Heat Shock Protein Level, Hsp70: 0.49 ± 0.05 AU
  Hsp70 level, percent increase vs untreated control: (77%)
[1]; HEART
  Heat Shock Protein Level, Hsp70: 0.71 ± 0.03 AU
  Hsp70 level, percent increase vs untreated control: (17%)
[1]; LIVER
  Heat Shock Protein Level, Hsp70: 0.69 ± 0.001 AU
  Hsp70 level, percent increase vs untreated control: (45%)
[1]; SKELETAL MUSCLE
  Heat Shock Protein Level, Hsp70: 0.69 ± 0.07 AU
  Hsp70 level, percent increase vs untreated control: (57%)
[2]; old female rats (~12 months)
  GPX: 44.6 ± 4.29 mU/mg Protein
  GRD: 5.65 ± 0.65 mU/mg protein
  GSH: 6.80 ± 0.28^b nmol/mg protein
  GST: 14.0 ± 0.45^b mU/mg protein
[2]; old female rats
  GRD, percent increase vs untreated control: (13%)
  GSH, percent increase vs untreated control: (31%)
[2]; old male rats (~12 months)
  GPX: 52.2 ± 0.72^a mU/mg Protein
  GRD: 3.72 ± 0.29^a mU/mg protein
  GSH: 4.43 ± 0.09^a nmol/mg protein
  GST: 17.5 ± 0.76 mU/mg protein
[2]; old male rats
  GPX, percent increase vs untreated control: (15%)
  GRD, percent increase vs untreated control: (39%)
  GSH, percent increase vs untreated control: (265%)
[3]; I-R, female, 1 mg/kg daily
  LDH Leakage: 2861 ± 70.6^b AU
  LDH Leakage, percent protection vs unpretreated control: (31%)
[3]; I-R, female, 10 mg/kg daily
  LDH Leakage: 2023 ± 83.1^b AU
  LDH Leakage, percent protection vs unpretreated control: (60%)
[3]; I-R, male, 1 mg/kg daily
  LDH Leakage: 3638 ± 125^a AU
  LDH Leakage, percent protection vs unpretreated control: (37%)
[3]; I-R, male, 10 mg/kg daily
  LDH Leakage: 2775 ± 55.8^a AU
  LDH Leakage, percent protection vs unpretreated control: (57%)
[3]; NON-I-R, female, 1 mg/kg daily
  LDH Leakage: 776 ± 22.1 AU
[3]; NON-I-R, female, 10 mg/kg daily
  LDH Leakage: 813 ± 14.0 AU
[3]; NON-I-R, male, 1 mg/kg daily
  LDH Leakage: 804 ± 18.0 AU
[3]; NON-I-R, male, 10 mg/kg daily
  LDH Leakage: 820 ± 13.8 AU
